Columns and labels:
[1] = target: Kelch domain of human KEAP1 (321-624 aa) (Homo sapiens (Human), UniProt Q14145); assay: KEAP1 KELCH ThermoFluor binding assay; details: KEAP Kelch […], 1,8-ANS, pH 7.0, average of results obtained, read-out: Tf Kd;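 also: Ligand-induced melting temperature shift of E. coli-expressed KEAP1 Kelch protein, Kd estimated from concentration-response curves of ΔTm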
[2] = tested on: Glo-Response ARE-luc2P HEK293 cell line; assay: ARE luciferase reporter cell-based assay; details: average of results obtained;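 also: luciferase signal tracks Nrf2 activation of the ARE once compounds disrupt KEAP1-Nrf2 binding, read with One-Glo reagent, DMSO serving as low control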

Chain of Kelch domain of human KEAP1 (321-624 aa) (Q14145 321-624): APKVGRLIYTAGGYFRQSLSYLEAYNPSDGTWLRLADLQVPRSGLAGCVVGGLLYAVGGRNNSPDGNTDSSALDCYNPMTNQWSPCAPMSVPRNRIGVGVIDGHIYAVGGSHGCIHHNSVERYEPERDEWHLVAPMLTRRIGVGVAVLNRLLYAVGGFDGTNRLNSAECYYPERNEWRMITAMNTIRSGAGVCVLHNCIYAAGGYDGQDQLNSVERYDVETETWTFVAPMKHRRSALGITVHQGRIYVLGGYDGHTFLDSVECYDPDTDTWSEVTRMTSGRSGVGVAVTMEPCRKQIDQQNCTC

| Compound | Kd [1] [nM] | EC50 ([2]; Homo sapiens, HEK293, 24 h) [nM] | EC50 ([2]; 24 hours) [nM] |
| --- | --- | --- | --- |
| Cc1ccc(C(c2ccn3c(C(F)(F)F)nnc3c2C)C(C)(C)C(=O)O)cc1CN1CC2(CCOCC2)Oc2nc(N[C@H](C)CCO)ccc2S1(=O)=O (some centres unmarked) [Example 117] | < 1 | 425 | – |
| Cc1ccc(C(CC(=O)O)c2ccc3c(nnn3CC3CC3)c2C)cc1CN1CC2(COC2)Oc2ncccc2S1(=O)=O (centres unmarked) [Example 67] | 0.34 | 23 | – |
| CCn1nnc2c(C)c(C(CC(=O)O)c3ccc(C)c(CN4CC5(COC5)Oc5ncccc5S4(=O)=O)n3)ccc21 (racemic) [Example 240, (R/S)-3-(6-((1′,1′-Dioxidospiro[oxetane-3,4′-pyrido[2,3-b][1,4,5]oxathiazepin]-2′(3′H)-yl)methyl)-5-methylpyridin-2-yl)-3-(1-ethyl-4-methyl-1H-benzo[d][1,2,3]triazol-5-yl)propanoic Acid] | < 1 | 85 | – |
| Cc1ccc([C@@H](CC(=O)O)c2ccn3c(C(F)(F)F)nnc3c2C)cc1CN1CC2(CC2)Oc2ncccc2S1(=O)=O (single isomer, unassigned) [Example 8, (*R)-3-(3-((1′,1′-dioxidospiro[cyclopropane-1,4′-pyrido[2,3-b][1,4,5]oxathiazepin]-2′(3′H)-yl)methyl)-4-methylphenyl)-3-(8-methyl-3-(trifluoromethyl)-[1,2,4]triazolo[4,3-a]pyridin-7-yl)propanoic Acid] | 0.188 | 660 | – |
| Cc1ccc([C@@H](CC(=O)O)c2ccn3c(C)nnc3c2)cc1CN1C[C@H]2CCCN2c2ncccc2S1(=O)=O (single isomer, unassigned) [Example 164, (*R)-3-(3-(((R)-5,5-Dioxido-7a,8,9,10-tetrahydropyrido[2,3-f]pyrrolo[2,1-d][1,2,5]thiadiazepin-6(7H)-yl)methyl)-4-methylphenyl)-3-(3-methyl-[1,2,4]triazolo[4,3-a]pyridin-7-yl)propanoic Acid] | 2.3 | 11200 | – |
| Cc1cc2c(nc1OCCN1CCCC1)OC1(CC1)CN(Cc1cc([C@@H](c3ccc4c(nnn4C4CC4)c3C)C(C)(C)C(=O)O)cnc1C)S2(=O)=O (single isomer, unassigned) [Example 625, (*R)-3-(1-Cyclopropyl-4-methyl-1H-benzo[d][1,2,3]triazol-5-yl)-2,2-dimethyl-3-(6-methyl-5-((8′-methyl-1′,1′-dioxido-7′-(2-(pyrrolidine-1-yl)ethoxy)spiro[cyclopropane-1,4′-pyrido[2,3-b][1,4,5]]oxathiazepin]-2′(3′H)-yl)methyl)pyridine-3-yl)propanoic Acid] | < 1 | 70.6 | – |
| Cc1ccc([C@@H](c2ccn3c(C(F)(F)F)nnc3c2C)C(C)(C)C(=O)O)cc1CN1CC2(CC2)Oc2nc(OCCN3CCC3)c(C)cc2S1(=O)=O (single isomer, unassigned) [Example 604, (*S)-3-(3-((7′-(2-(Azetidin-1-yl)ethoxy)-8′-methyl-1′,1′-dioxidospiro[cyclopropane-1,4′-pyrido[2,3-b][1,4,5]oxathiazepin]-2′(3′H)-yl)methyl)-4-methylphenyl)-2,2-dimethyl-3-(8-methyl-3-(trifluoromethyl)-[1,2,4]triazolo[4,3-a]pyridine-7-yl)propanoic Acid] | < 1 | 8.82 | – |
| Cc1ccc(C(CC(=O)O)c2ccc3c(nnn3C3CC3)c2C)cc1CN1C[C@@H]2CCCCN2c2ncccc2S1(=O)=O (mixture of isomers) [Example 397, (R/S)-3-(1-Cyclopropyl-4-methyl-1H-benzo[d][1,2,3]triazol-5-yl)-3-(3-(((*S)-5,5-dioxido-7,7a,8,9,10,11-hexahydro-6H-dipyrido[2,1-d:2′,3′-f][1,2,5]thiadiazepin-6-yl)methyl)-4-methylphenyl)propanoic Acid] | < 1 | 11 | – |
| Cc1ncc([C@@H](CC(=O)O)c2ccn3c(C(F)(F)F)nnc3c2C)cc1CN1CC2(CCOCC2)Oc2ncccc2S1(=O)=O (single isomer, unassigned) [Example 562, (*S)-3-(5-((1′,1′-Dioxido-2,3,5,6-tetrahydrospiro[pyran-4,4′-pyrido[2,3-b][1,4,5]oxathiazepin]-2′(3′H)-yl)methyl)-6-methylpyridin-3-yl)-3-(8-methyl-3-(trifluoromethyl)-[1,2,4]triazolo[4,3-a]pyridin-7-yl)propanoic Acid] | 14.8 | 2490 | – |
| Cc1ccc([C@H](CC(=O)O)c2ccn3c(C(F)(F)F)nnc3c2C)cc1CN1CC2(CC2)Oc2ncc(Cl)cc2S1(=O)=O (single isomer, unassigned) [Example 195, (*S)-3-(3-((8′-Chloro-1′,1′-dioxidospiro[cyclopropane-1,4′-pyrido[2,3-b][1,4,5]oxathiazepin]-2′(3′H)-yl)methyl)-4-methylphenyl)-3-(8-methyl-3-(trifluoromethyl)-[1,2,4]triazolo[4,3-a]pyridin-7-yl)propanoic Acid] | < 1 | 5.7 | – |
| Cc1ccc([C@H](CC(=O)O)c2ccc3c(nnn3CC3CC3)c2C(F)F)cc1CN1C[C@H]2CCCCN2c2ncccc2S1(=O)=O (single isomer, unassigned) [Example 170, (*S)-3-(1-(Cyclopropylmethyl)-4-(difluoromethyl)-1H-benzo[d][1,2,3]triazol-5-yl)-3-(3-(((*R)-5,5-dioxido-7,7a,8,9,10,11-hexahydro-6H-dipyrido[2,1-d:2′,3′-f][1,2,5]thiadiazepin-6-yl)methyl)-4-methylphenyl)propanoic Acid] | < 1 | 110 | – |
| Cc1cnc([C@@H](c2ccn3c(C(F)(F)F)nnc3c2C)C(C)(C)C(=O)O)cc1CN1CC2(CCOCC2)Oc2nc(OCCN3CCCC3)c(C)cc2S1(=O)=O (single isomer, unassigned) [Example 593, (*S)-2,2-Dimethyl-3-(8-methyl-3-(trifluoromethyl)-[1,2,4]triazolo[4,3-a]pyridin-7-yl)-3-(5-methyl-4-((8′-methyl-1′,1′-dioxido-7′-(2-(pyrrolidin-1-yl)ethoxy)-2,3,5,6-tetrahydrospiro[pyran-4,4′-pyrido[2,3-b][1,4,5]oxathiazepin]-2′(3′H)-yl)methyl)pyridin-2-yl)propanoic Acid] | < 1 | 89.7 | – |
| Cc1cnc2c(c1)S(=O)(=O)N(Cc1cc([C@@H](c3ccn4c(C(F)(F)F)nnc4c3C)C(C)(C)C(=O)O)ccc1C)CC1(COC1)O2 (single isomer, unassigned) [Example 614, (*S)-2,2-dimethyl-3-(4-methyl-3-((8′-methyl-1′,1′-dioxidospiro[oxetane-3,4′-pyrido[2,3-b][1,4,5]oxathiazepin]-2′(3′H)-yl)methyl)phenyl)-3-(8-methyl-3-(trifluoromethyl)-[1,2,4]triazolo[4,3-a]pyridine-7-yl)propanoic Acid] | < 1 | 0.71 | – |
| (*S)-3-(3-((7′-(3-((2-(2-aminoethoxy)ethyl)amino)-3-oxopropyl)-1′,1′-dioxido-2,3,5,6-tetrahydrospiro[pyran-4,4′-pyrido[2,3-b][1,4,5]oxathiazepin]-2′(3′H)-yl)methyl)-4-methylphenyl)-2,2-dimethyl-3-(8-methyl-3-(trifluoromethyl)-[1,2,4]triazolo[4,3-a]pyridin-7-yl)propanoic Acid [Example 345] | > 10000 | – | > 20 |
| Cc1cnc2c(c1)S(=O)(=O)N(Cc1nc([C@H](c3ccn4c(C(F)F)nnc4c3C)C(C)(C)C(=O)O)ccc1C)CC1(CC1)O2 (single isomer, unassigned) [Example 335, (*R)-3-(3-(Difluoromethyl)-8-methyl-[1,2,4]triazolo[4,3-a]pyridin-7-yl)-2,2-dimethyl-3-(5-methyl-6-((8′-methyl-1′,1′-dioxidospiro[cyclopropane-1,4′-pyrido[2,3-b][1,4,5]oxathiazepin]-2′(3′H)-yl)methyl)pyridin-2-yl)propanoic Acid] | 2440 | 4620 | – |
| Cc1cnc2c(c1)S(=O)(=O)N(Cc1nc([C@@H](c3ccn4c(C(F)F)nnc4c3C)C(C)(C)C(=O)O)ccc1C)CC1(COC1)O2 (single isomer, unassigned) [Example 627, (*S)-3-(3-(Difluoromethyl)-8-methyl-[1,2,4]triazolo[4,3-a]pyridin-7-yl)-2,2-dimethyl-3-(5-methyl-6-((8′-methyl-1′,1′-dioxidospiro[oxetane-3,4′-pyrido[2,3-b][1,4,5]oxathiazepin]-2′(3′H)-yl)methyl)pyridin-2-yl)propanoic Acid] | < 1 | 1.35 | – |
| Cc1ncc([C@H](c2ccn3c(C(F)(F)F)nnc3c2C)C(C)(C)C(=O)O)cc1CN1CC2(CCOCC2)Oc2ncccc2S1(=O)=O (single isomer, unassigned) [Example 570, (*S)-3-(5-((1′,1′-Dioxido-2,3,5,6-tetrahydrospiro[pyran-4,4′-pyrido[2,3-b][1,4,5]oxathiazepin]-2′(3′H)-yl)methyl)-6-methylpyridin-3-yl)-2,2-dimethyl-3-(8-methyl-3-(trifluoromethyl)-[1,2,4]triazolo[4,3-a]pyridin-7-yl)propanoic Acid] | < 1 | 1120 | – |
| Cc1ccc([C@@H](c2ccn3c(C(F)(F)F)nnc3c2C)C(C)(C)C(=O)O)cc1CN1C[C@]2(CCOC2)Oc2ncccc2S1(=O)=O (single isomer, unassigned) [Example 381, (*S)-3-(3-(((*S)-1′,1′-Dioxido-4,5-dihydro-2H-spiro[furan-3,4′-pyrido[2,3-b][1,4,5]oxathiazepin]-2′(3′H)-yl)methyl)-4-methylphenyl)-2,2-dimethyl-3-(8-methyl-3-(trifluoromethyl)-[1,2,4]triazolo[4,3-a]pyridin-7-yl)propanoic Acid] | 2820 | 427 | – |
| Cc1ccc(C(CC(=O)O)c2ccn3c(C(F)(F)F)nnc3c2C)nc1CN1C[C@@H]2CCCCN2c2ncc(F)cc2S1(=O)=O (stereo in doubt) [Example 496, 3-(6-(((*S)-3-Fluoro-5,5-dioxido-7,7a,8,9,10,11-hexahydro-6H-dipyrido[2,1-d:2′,3′-f][1,2,5]thiadiazepin-6-yl)methyl)-5-methylpyridin-2-yl)-3-(8-methyl-3-(trifluoromethyl)-[1,2,4]triazolo[4,3-a]pyridin-7-yl)propanoic Acid] | < 1 | 7.65 | – |
